Data: US10344026B2, “Compositions and methods of targeting mutant K-ras” (NANTBIO, INC., priority 2017, dated 2019)

How the values were obtained:
Format in all cases: cell-based
[1] = test system: HCC827 (K-Ras wild type cell line); assay: Viability assay (CellTiterBlue, 72 hr) HCC827; details: Homo sapiens, GI50, CellTiterBlue, HCC827 K-Ras wild-type
Outline: (§1)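 1000 cells/well, 18 hr pre-incubation at 37 °C; compound added from DMSO stock, 0.5% DMSO final; 72 hr; CellTiterBlue 3 hr, fluorescence Ex550/Em590; GI50 normalized to DMSO = 100%, 100 uM tamoxifen = 0% viability.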

[2] = biological target: T1, K-Ras G12D (Homo sapiens, UniProt P01116, G12D); assay: G-LISA Ras activation, 293H cells transfected with G12D mutant; details: compound 1 hour
T1 construct: expressed in transfected cells; host or cells: 293H cells
Outline: (§2)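 Active Ras was quantified by G-LISA in lysates of 293H cells transiently expressing wild-type or mutant Ras. Compounds (3.125-25 μM) were applied for 1 hour; only wild-type transfected cells were stimulated with 100 ng/ml EGF for 2 minutes.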

[3] = test system: phospho-ERK in HCC827 (Wild-type); assay: In-Cell Western phospho-ERK, HCC827; details: Homo sapiens, 1 h; HCC827, one hour treatment; read-out: In-Cell Western HCC827 (Wild-type) Erk (P)
Outline: (§3)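 Cells were seeded at 3000 cells/well, incubated 18 hr at 37° C, then treated with compound for 1 hr (0.5% DMSO final). After fixation, permeabilization and blocking, phospho-Akt or phospho-ERK antibodies were applied overnight at 4° C, followed by secondary antibody; cellular fluorescence was imaged and EC50 calculated.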

[4] = test system: A375 (K-Ras wild type cell line); assay: Viability assay (CellTiterBlue, 72 hr) A375; details: Homo sapiens, A-375, GI50, CellTiterBlue
Outline: as §1

[5] = test system: U87-MG (K-Ras wild type cell line); assay: Viability assay (CellTiterBlue, 72 hr) U87-MG; details: Homo sapiens, U-87 MG, GI50, CellTiterBlue, U87-MG K-Ras wild-type
Outline: as §1

[6] = test system: phospho-ERK in Panc1 (G12D); assay: In-Cell Western phospho-ERK, Panc1; details: Homo sapiens, PANC-1, 1 h; Panc1, one hour treatment; read-out: In-Cell Western Panc1 (G12D) Erk (P)
Outline: as §3

[7] = test system: Panc1-G12D; assay: Viability assay (CellTiterBlue, 72 hr) Panc1; details: Homo sapiens, PANC-1, GI50, CellTiterBlue, Panc1 K-Ras G12D, read-out: 72 hr Cell Viability Panc1 (G12D)
Outline: as §1

[8] = test system: Ishikawa (K-Ras wild type cell line); assay: Viability assay (CellTiterBlue, 72 hr) Ishikawa; details: Homo sapiens, GI50, CellTiterBlue, Ishikawa K-Ras wild-type
Outline: as §1

[9] = biological target: T2, wild type K-Ras (Homo sapiens, UniProt P01116); assay: G-LISA Ras activation, 293H cells transfected with Ras wild-type, EGF stimulated; details: compound 1 hour, then 100 ng/ml EGF 2 minutes
T2 construct: expressed in transfected cells; host or cells: 293H cells
Outline: as §2

[10] = test system: phospho-Akt in Panc1 (G12D); assay: In-Cell Western phospho-Akt, Panc1; details: Homo sapiens, PANC-1, 1 h; Panc1, one hour treatment; read-out: In-Cell Western Panc1 (G12D) Akt (P)
Outline: as §3

[11] = test system: HCT116-G31D; assay: Viability assay (CellTiterBlue, 72 hr) HCT116; details: Homo sapiens, HCT-116, GI50, CellTiterBlue, HCT116 K-Ras G13D, read-out: 72 hr Cell Viability HCT116 (G13D)
Outline: as §1

[12] = test system: Panc10.05-G12D; assay: Viability assay (CellTiterBlue, 72 hr) Panc10.05; details: Homo sapiens, Panc1005, GI50, CellTiterBlue, Panc10.05 K-Ras G12D, read-out: 72 hr Cell Viability Panc10.05 (G12D)
Outline: as §1

[13] = test system: phospho-Akt in HCC827 (Wild-type); assay: In-Cell Western phospho-Akt, HCC827; details: Homo sapiens, 1 h; HCC827, one hour treatment; read-out: In-Cell Western HCC827 (Wild-type) Akt (P)
Outline: as §3

[14] = test system: phospho-Akt in A375 (Wild-type); assay: In-Cell Western phospho-Akt, A375; details: Homo sapiens, A-375, 1 h; A375, one hour treatment; read-out: In-Cell Western A375 (Wild-type) Akt (P)
Outline: as §3

[15] = test system: phospho-ERK in A375 (Wild-type); assay: In-Cell Western phospho-ERK, A375; details: Homo sapiens, A-375, 1 h; A375, one hour treatment; read-out: In-Cell Western A375 (Wild-type) Erk (P)
Outline: as §3

[16] = test system: phospho-ERK in Panc10.05 (G12D); assay: In-Cell Western phospho-ERK, Panc10.05; details: Homo sapiens, Panc1005, 1 h; Panc10.05, one hour treatment; read-out: In-Cell Western Panc10.05 (G12D) Erk (P)
Outline: as §3

[17] = test system: phospho-Akt in Panc10.05 (G12D); assay: In-Cell Western phospho-Akt, Panc10.05; details: Homo sapiens, Panc1005, 1 h; Panc10.05, one hour treatment; read-out: In-Cell Western Panc10.05 (G12D) Akt (P)
Outline: as §3

T2 sequence (P01116 whole entry): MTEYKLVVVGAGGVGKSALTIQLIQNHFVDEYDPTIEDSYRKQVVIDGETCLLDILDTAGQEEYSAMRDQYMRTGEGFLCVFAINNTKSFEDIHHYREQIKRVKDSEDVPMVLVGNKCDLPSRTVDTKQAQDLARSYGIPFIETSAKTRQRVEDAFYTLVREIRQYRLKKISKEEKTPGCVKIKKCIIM
T1 sequence (P01116 whole entry G12D): as the sequence (P01116 whole entry) above, with G12D counted along it

Structure (SMILES)	IC50 [1] [µM]	IC50 [2] [µM]	EC50 [3] [µM]	IC50 [4] [µM]	IC50 [5] [µM]	EC50 [6] [µM]	IC50 [7] [µM]	IC50 [8] [µM]	IC50 [9] [µM]	EC50 [10] [µM]	IC50 [11] [µM]	IC50 [12] [µM]	EC50 [13] [µM]	EC50 [14] [µM]	EC50 [15] [µM]	EC50 [16] [nM]	EC50 [17] [µM]
Cc1nn(-c2ccc(F)cc2)c(C)c1C(=O)Nc1nc(-c2ccc3c(c2)CCC(=O)N3)cs1 [Compound 54, 1-(4-fluorophenyl)-3,5-dimethyl-N-(4-(2-oxo-1,2,3,4-tetrahydroquinolin-6-yl)thiazol-2-yl)-1-pyrazole-4-carboxamide]	13	7.9	> 25	26	15	> 25	15	> 25	10.6	> 25	23	6	> 25	> 25	> 25	3000	> 25
CCn1cc(C(=O)Nc2nc(-c3ccc4c(c3)CCC(=O)N4Cc3cccnc3)cs2)c(C)n1 [Compound 115, 1-ethyl-3-methyl-N-(4-(2-oxo-1-(pyridin-3-ylmethyl)-1,2,3,4-tetrahydroquinolin-6-yl)thiazol-2-yl)-1H-pyrazole-4-carboxamide]	11	3.4	6	6	17	2	9	9	6.3	18	10	4	> 25	> 25	9	2000	12
Cc1nn(C(C)C)c(C)c1C(=O)Nc1nc(-c2ccc3c(c2)CCC(=O)N3)cs1 [Compound 52, 1-isopropyl-3,5-dimethyl-N-(4-(2-oxo-1,2,3,4-tetrahydroquinolin-6-yl)thiazol-2-yl)-1H-pyrazole-4-carboxamide]	10	5.2	20	5	14	8	16	13	13.9	> 25	10	15	> 25	24	14	4000	18
Cc1nn(C(C)C)c(C)c1C(=O)Nc1nc(-c2ccc3c(c2)CCC(=O)N3Cc2cccnc2)cs1 [Compound 117, 1-isopropyl-3,5-dimethyl-N-(4-(2-oxo-1-(pyridin-3-ylmethyl)-1,2,3,4-tetrahydroquinolin-6-yl)thiazol-2-yl)-1H-pyrazole-4-carboxamide]	4	2.6	4	14	> 25	4	3	5	6.7	23	> 25	1.4	> 25	> 25	15	914	3
Cc1nn(Cc2ccccc2)c(C)c1C(=O)Nc1nc(-c2ccc3c(c2)CCC(=O)N3)cs1 [Compound 56, 1-benzyl-3,5-dimethyl-N-(4-(2-oxo-1,2,3,4-tetrahydroquinolin-6-yl)thiazol-2-yl)-1H-pyrazole-4-carboxamide]	7	6.6	9	4	12	3	9	7	19.2	27	6	7	> 25	> 25	16	3000	21
Cc1nn(C(C)(C)C)c(C)c1C(=O)Nc1nc(-c2ccc3c(c2)CCC(=O)N3)cs1 [Compound 57, 1-(tert-butyl)-3,5-dimethyl-N-(4-(2-oxo-1,2,3,4-tetrahydroquinolin-6-yl)thiazol-2-yl)-1H-pyrazole-4-carboxamide]	> 25	9.4	> 25	27	> 25	26	> 25	> 25	30	> 25	> 25	8	> 25	> 25	> 25	6000	> 25
CCCn1nc(C)c(C(=O)Nc2nc(-c3ccc4c(c3)CCC(=O)N4)cs2)c1C [Compound 55, 3,5-dimethyl-N-(4-(2-oxo-1,2,3,4-tetrahydroquinolin-6-yl)thiazol-2-yl)-1-propyl-1H-pyrazole-4-carboxamide]	> 25	4	> 25	> 25	> 25	> 25	> 25	> 25	6.5	> 25	> 25	> 25	> 25	> 25	> 25	14000	> 25
Cc1nn(-c2ccccc2)c(C)c1C(=O)Nc1nc(-c2ccc3c(c2)CCC(=O)N3)cs1 [Compound 53, 3,5-dimethyl-N-(4-(2-oxo-1,2,3,4-tetrahydroquinolin-6-yl)thiazol-2-yl)-1-phenyl-1H-pyrazole-4-carboxamide]	10	6.7	14	3	15	16	12	13	7.7	> 25	11	10	> 25	10	6	3000	15
COCCN1C(=O)CCc2cc(-c3csc(NC(=O)c4oc(C(C)C)nc4C)n3)ccc21 [Compound 111, 2-isopropyl-NA-(4-(1-(2-methoxyethyl)-2-oxo-1,2,3,4-tetrahydroquinolin-6-yl)thiazol-2-yl)-4-methyloxazole-5-carboxamide]	2	2.5	1.6	7	7	1.4	2	4	3.9	16	24	0.852	> 25	> 25	12	767	2
